Laboratory results taken from patent US6984484B1, “Mammalian serine racemase” (The Johns Hopkins University, priority 1999, dated 2006).

Assays:
serine racemase [1] = molecular target: T1, serine racemase (Rattus norvegicus, UniProt Q76EQ0); assay: Substrate specificity of serine racemase; assay type: biochemical; settings: for Specific activity / % control: 20 mM L-amino acids; for Specific activity: 37° C., pH 8.0, 8 h, HPLC; for Racemase activity with the amino acid: purified enzyme; for % control: activity relative to L-serine, 8 h
T1 construct: the rat brain enzyme we have purified; from tissue; host or cells: rat brain (10–14 day old Sprague-Dawley rats)
T1 sequence (Q76EQ0 1-333): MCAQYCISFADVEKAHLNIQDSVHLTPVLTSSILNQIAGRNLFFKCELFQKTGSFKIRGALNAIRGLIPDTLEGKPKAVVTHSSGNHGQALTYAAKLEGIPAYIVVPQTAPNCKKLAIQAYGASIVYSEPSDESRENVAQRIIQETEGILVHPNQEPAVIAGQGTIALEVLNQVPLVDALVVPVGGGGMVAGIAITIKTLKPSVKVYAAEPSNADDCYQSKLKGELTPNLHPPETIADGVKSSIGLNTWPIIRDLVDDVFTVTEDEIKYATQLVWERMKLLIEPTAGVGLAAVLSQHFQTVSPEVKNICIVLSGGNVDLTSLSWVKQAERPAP
Experimental: (§1) The generation of hydrogen peroxide was quantitated by the use of peroxidase and luminol, which emits light. A 10 μl sample aliquot was added to 100 μl of medium containing 100 mM Tris-HCl (pH 8.8), 10 U/ml peroxidase, and 8 μM luminol. After a 10 to 20 minute delay required to decrease the nonspecific luminol luminescence, 10 μl of D-amino acid oxidase (75 U/ml) were added, and the tubes were gently mixed with a pipette tip. Maximum luminescence was recorded after 10 to 15 minutes at room temperature using a Monolight 2010 luminometer (Analytical Luminescence Laboratory). The amount of D-serine in each sample was calculated by comparison with standard curves. The measurements were reliable in the range of 50 to 2000 pmol D-serine per sample. […] Alternatively, amino acid enantiomers were separated by high performance liquid chromatography (HPLC) using a carbon 18 reverse phase column (RP18 Spheri-5, 22 cm×4.6 mm, Perkin Elmer) with fluorimetric detection after derivatization with L-Boc-cys and OPA, as described (17). The results obtained with chemiluminescent assay were identical to those obtained using HPLC.
The presence of trace amounts of D-serine in the commercial L-serine reagent generates high blank values. Thus, the stock solution of L-serine (100 mM) was routinely pre-treated for 3 days with 30 units of D-amino acid oxidase and 500 units of catalase to remove any D-serine contaminant. The enzymes were precipitated by the addition of 5% TCA. After removal of TCA by extraction with diethyl ether, the L-serine solution was neutralized with NaOH and could be used without further purification, being virtually free of any D-serine contaminant. The same purification procedure was applied for L-alanine and L-threonine.
Additionally, we examined the purified enzyme for the presence of other enzyme activities which might indirectly contribute to D-serine formation. We found no evidence for serine: pyruvate aminotransferase activity, as L-serine levels were not altered in the presence of pyruvate. […] There is no evidence for serine dehydratase activity which would be associated with a marked decrease in L-serine levels.

serine racemase [2] = molecular target: T1, serine racemase; assay: Absorption spectra of purified serine racemase; settings: 70 μg/ml enzyme preincubated 10 minutes with 1 mM AOAA (FIG. 5)
Experimental: FIG. 5. Absorption spectra of purified serine racemase. Purified enzyme (70 μg/ml) was preincubated for 10 minutes in medium containing 10 mM KPi (pH 7.2), 2 mM DTT, 1 mM EDTA, 10 μM PLP, either in the absence (Control) or in the presence of 1 mM aminooxyacetic acid (AOAA). The distinct peaks of absorbance at 420 and 340 nm were not observed in the presence of buffer alone or when bovine serum albumin was used instead of serine racemase.
For most applications the purified protein was further concentrated using centriplus 30. Protein concentration was determined with Coomassie plus protein assay reagent (Pierce). Enzyme-bound PLP was determined at room temperature by recording the absorbance of the purified protein in the range of 500 to 280 nm using a Lambda Bio spectrophotometer (Perkin Elmer).
Examination of the absorption spectrum of the enzyme confirms the importance of PLP. […] The peak at 420 nm, corresponding to a Schiff's base complex of PLP with an active site lysine, is abolished by treatment with AOAA (FIG. 5).

serine racemase [3] = molecular target: T1, serine racemase; assay: Inhibition of serine racemase by PLP inhibitors and sulfhydryl oxidation; PLP requirement; assay type: biochemical; settings: for Effect on enzyme activity (PLP inhibitors): 37° C., pH 8.0, 20 mM L-serine, 2 mM DTT, 10 μM PLP, different concentrations (FIG. 4A)
Experimental: FIG. 4. inhibition of serine racemase by PLP inhibitors and sulfhydryl oxidation. FIG. 4A. Enzyme activity was monitored at 37° C. in a medium containing 50 mM Tris-HCl (pH 8.0), 20 mM L-serine, 40–100 μg/ml purified enzyme, 1 mM EDTA, 2 mM DTT, 10 μM pyridoxal 5′-phosphate and different concentrations of either aminooxyacetic acid (◯) or hydroxylamine (●). FIG. 4B. Reaction medium and conditions were as described in A, except that DTT was omitted from the last step of the enzyme preparation. The enzyme was preincubated for 10 minutes in the presence of different concentrations of oxidized glutathione (GSSG).
D-serine formation was monitored by a chemiluminescent assay that specifically detects D-serine. Racemase activity was performed in the presence of 50 mM Tris-HCl (pH 8.0), 18 μl enzyme extract, 1 mM EDTA, 2 mM DTT, 15 μM pyridoxal 5′-phosphate (PLP), and 20 mM L-serine. After 0.5 to 8 hours incubation at 37° C., the reaction was terminated by the addition of trichloroacetic acid (TCA) to a final concentration of 5%. Blanks employed boiled enzyme extract. The precipitated protein was removed by centrifugation, and the supernatant was extracted 2 times with 1 ml of water-saturated diethyl ether to remove TCA. D-serine concentration was determined by incubation of the samples with D-amino acid oxidase, which specifically degrades D-amino acids, generating an α-keto acid, NH3 and hydrogen peroxide (16).
as §1, with “HPLC. […]” for “HPLC.”
We wondered whether conversion of L to D-serine might be a by-product of a different enzyme activity with non-enzymatic racemization giving rise to D-serine. Accordingly, we monitored by HPLC levels of L and D-serine at different incubation times (Table 2). […]

serine racemase [4] = molecular target: T1, serine racemase; assay: Racemization of L-serine over time, L- and D-serine by HPLC; assay type: biochemical
Experimental: as §1
We wondered whether conversion of L to D-serine might be a by-product of a different enzyme activity with non-enzymatic racemization giving rise to D-serine. Accordingly, we monitored by HPLC levels of L and D-serine at different incubation times (Table 2). Increases in formation of D-serine are paralleled by stoichiometric decreases in levels of L-serine, making it unlikely that L-serine is converted to any other compound by the enzyme.

[5] = molecular target: NMDA receptor "glycine site" (Homo sapiens, UniProt Q05586); settings: reference 14; cited from earlier work
[6] = time 0, 4 mM L-serine, 40 μg/ml purified enzyme, 37° C.

C[C@@H](O)[C@H](N)C(=O)O [L-threonine]
Specific activity (serine racemase [1]): 0 µmol/mg/h
Racemase activity with the amino acid (serine racemase [1]): no activity

NOCC(=O)O [Aminooxyacetic acid, aminooxyacetic acid]
Absorption peak at 420 nm of the enzyme (Schiff's base complex of PLP) (serine racemase [2]): abolished
Effect on enzyme activity (PLP inhibitors) (serine racemase [3]): inhibit enzyme activity

N[C@@H](CO)C(=O)O [L-serine]
[D-sertne] (serine racemase [4]; [6]): 0.0007 mM
[L-serine] (serine racemase [4]; [6]): 4.00 mM
[D-sertne] (serine racemase [4]; time 0.5 h): 0.042 mM
[L-serine] (serine racemase [4]; time 0.5 h): 3.96 mM
[D-sertne] (serine racemase [4]; time 1 h): 0.101 mM
[L-serine] (serine racemase [4]; time 1 h): 3.93 mM
[D-sertne] (serine racemase [4]; time 4 h): 0.342 mM
[L-serine] (serine racemase [4]; time 4 h): 3.65 mM
Specific activity (serine racemase [1]): 4.8 µmol/mg/h
% control (serine racemase [1]): 100%

C[C@H](N)C(=O)O [L-alanine]
Specific activity (serine racemase [1]): 0.012 µmol/mg/h

oxidized glutathione
Effect on enzyme activity (sulfhydryl oxidation) (serine racemase [3]; DTT omitted, enzyme preincubated for 10 minutes with different concentrations (FIG. 4B)): markedly reduces enzyme activity

N[C@@H](CC(=O)O)C(=O)O [L-aspartate]
Specific activity (serine racemase [1]): 0 µmol/mg/h
% control (serine racemase [1]): 0%
Racemase activity with the amino acid (serine racemase [1]): no activity

N[C@H](CO)C(=O)O [D-serine]
Potency relative to glycine at the glycine site [5]: up to three times more potent than glycine

Cc1ncc(COP(=O)(O)O)c(C=O)c1O [PLP, pyridoxal 5′-phosphate]
Enzyme activity after dialysis without PLP, on addition of PLP (serine racemase [3]; dialysis for 16 hours against 1,000 volumes of purification buffer without PLP): can be restored by the addition of PLP

NO [hydroxylamine]
Effect on enzyme activity (PLP inhibitors) (serine racemase [3]): inhibit enzyme activity
